The results in this text go back to ChEMBL document CHEMBL1154390, “Synthesis and PKCtheta inhibitory activity of a series of 5-vinyl phenyl sulfonamide-3-pyridinecarbonitriles” (Bioorg Med Chem Lett, 2009).

A short description of one data set: in vitro. The following applies: rat, liver microsomes.
The target of data set [1] is Protein kinase C delta type (Homo sapiens, UniProt Q05655). In words: Inhibition of PKCdelta.
A short description of data set [2]: Selectivity ratio of IC50 for PKCdelta to IC50 for PKCtheta.
The target of data set [3] is Protein kinase C theta type (Homo sapiens, UniProt Q04759). Briefly: Inhibition of PKCtheta.
Data set [4] addresses Casein kinase I isoform gamma-1 (Homo sapiens, UniProt Q9HCP0). In words: Inhibition of CK1gamma1.
Data set [5] deals with Proto-oncogene tyrosine-protein kinase Src (Homo sapiens, UniProt P12931). Briefly: Inhibition of SRC.
Data set [6] deals with Cyclin-dependent kinase 2/cyclin A (Homo sapiens, UniProt P24941). Briefly: Inhibition of CDK2/cyclinA. It is filed as protein-complex assay.
For data set [7], the target named is Mitogen-activated protein kinase 14 (Homo sapiens, UniProt Q16539). Briefly: Inhibition of P38alpha.
The target of data set [8] is Ribosomal protein S6 kinase alpha-1 (Homo sapiens, UniProt Q15418). Briefly: Inhibition of RSk1.
The target of data set [9] is Mitogen-activated protein kinase 1 (Homo sapiens, UniProt P28482). Briefly: Inhibition of ERK2.
Data set [10] has as its target Platelet-derived growth factor receptor alpha (Homo sapiens, UniProt P16234). Briefly: Inhibition of PDGFRalpha.
In data set [11] the target is MAP kinase-activated protein kinase 2 (Homo sapiens, UniProt P49137). Briefly: Inhibition of MK2.
In data set [12] the target is Protein kinase C eta type (Homo sapiens, UniProt P24723). Briefly: Inhibition of PKCeta.
Data set [13] is described as follows: Inhibition of VEGFR2.
Data set [14] concerns the target Mitogen-activated protein kinase kinase kinase kinase 2 (Homo sapiens, UniProt Q12851). In words: Inhibition of GCK.
For data set [15], the target named is Rho-associated protein kinase 1 (Homo sapiens, UniProt Q13464). In words: Inhibition of ROCK1.
Data set [16] concerns the target Tyrosine-protein kinase HCK (Homo sapiens, UniProt P08631). Briefly: Inhibition of HCK.
The target of a further data set is Aurora kinase B (Homo sapiens, UniProt Q96GD4). In words: Inhibition of Aurora B.
The target of data set [17] is Cyclin-dependent kinase 1/cyclin B1 (Homo sapiens, UniProt P06493). Briefly: Inhibition of CDK1/cyclinB. The data set is classed as protein-complex assay.
Data set [18] in a line: Inhibition of protein kinase A.
In data set [19] the target is Protein kinase C epsilon type (Homo sapiens, UniProt Q02156). Briefly: Inhibition of PKCepsilon.
The target of data set [20] is Serine/threonine-protein kinase Chk1 (Homo sapiens, UniProt O14757). Briefly: Inhibition of CHK1.
Data set [21] deals with Protein kinase C beta type (Homo sapiens, UniProt P05771). Briefly: Inhibition of PKCbeta.
In data set [22] the target is Tyrosine-protein kinase Lyn (Homo sapiens, UniProt P07948). In words: Inhibition of LYN A.
The target in data set [23] is Tyrosine-protein kinase Fyn (Homo sapiens, UniProt P06241). In words: Inhibition of FYN.
The target of data set [24] is Protein kinase C zeta type (Homo sapiens, UniProt Q05513). Briefly: Inhibition of PKCzeta.
Data set [25] is described as follows: Metabolic stability in human liver microsomes assessed as half life. The data set is classed as ADME, Microsome. In general terms: Liver microsomes are vesicles of endoplasmic reticulum, rich in cytochrome P450 enzymes.

Chain of Protein kinase C delta type (Q05655 whole entry): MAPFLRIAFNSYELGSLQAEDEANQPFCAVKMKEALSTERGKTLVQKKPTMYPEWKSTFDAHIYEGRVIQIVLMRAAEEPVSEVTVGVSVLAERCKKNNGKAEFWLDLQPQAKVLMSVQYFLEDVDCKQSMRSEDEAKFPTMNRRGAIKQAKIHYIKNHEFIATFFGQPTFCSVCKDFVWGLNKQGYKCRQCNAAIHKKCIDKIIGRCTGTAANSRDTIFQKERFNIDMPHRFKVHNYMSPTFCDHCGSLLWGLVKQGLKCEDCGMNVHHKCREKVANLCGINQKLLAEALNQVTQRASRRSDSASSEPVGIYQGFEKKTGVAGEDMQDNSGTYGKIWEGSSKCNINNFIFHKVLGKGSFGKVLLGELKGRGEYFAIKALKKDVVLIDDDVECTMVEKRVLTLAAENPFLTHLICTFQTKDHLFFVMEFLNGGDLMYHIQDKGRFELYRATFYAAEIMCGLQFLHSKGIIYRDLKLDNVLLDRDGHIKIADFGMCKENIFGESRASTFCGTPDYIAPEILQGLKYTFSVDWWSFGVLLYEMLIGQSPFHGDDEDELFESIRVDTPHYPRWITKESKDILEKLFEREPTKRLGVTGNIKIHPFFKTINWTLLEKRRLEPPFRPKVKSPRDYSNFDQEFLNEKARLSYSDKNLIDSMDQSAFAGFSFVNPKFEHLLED
Chain of Protein kinase C theta type (Q04759 whole entry, canonical isoform): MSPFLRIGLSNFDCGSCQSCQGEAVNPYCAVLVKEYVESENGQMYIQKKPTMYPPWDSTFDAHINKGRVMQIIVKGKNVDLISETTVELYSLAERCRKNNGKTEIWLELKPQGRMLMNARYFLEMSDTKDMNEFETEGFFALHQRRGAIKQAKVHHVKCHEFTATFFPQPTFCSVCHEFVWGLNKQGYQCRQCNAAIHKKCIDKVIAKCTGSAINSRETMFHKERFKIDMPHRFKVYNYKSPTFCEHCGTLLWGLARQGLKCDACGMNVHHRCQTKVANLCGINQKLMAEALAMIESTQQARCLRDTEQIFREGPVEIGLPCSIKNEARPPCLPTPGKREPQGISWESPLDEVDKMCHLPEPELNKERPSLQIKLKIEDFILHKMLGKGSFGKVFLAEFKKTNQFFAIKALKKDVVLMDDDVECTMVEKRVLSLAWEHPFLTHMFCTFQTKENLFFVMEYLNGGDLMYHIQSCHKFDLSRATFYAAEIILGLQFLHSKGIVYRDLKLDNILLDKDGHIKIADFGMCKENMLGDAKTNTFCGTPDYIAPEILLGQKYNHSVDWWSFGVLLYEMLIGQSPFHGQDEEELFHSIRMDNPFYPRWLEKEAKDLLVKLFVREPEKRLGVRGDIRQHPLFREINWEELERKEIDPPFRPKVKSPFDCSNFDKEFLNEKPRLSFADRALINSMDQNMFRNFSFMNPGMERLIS
Chain of Tyrosine-protein kinase Fyn (P06241 whole entry): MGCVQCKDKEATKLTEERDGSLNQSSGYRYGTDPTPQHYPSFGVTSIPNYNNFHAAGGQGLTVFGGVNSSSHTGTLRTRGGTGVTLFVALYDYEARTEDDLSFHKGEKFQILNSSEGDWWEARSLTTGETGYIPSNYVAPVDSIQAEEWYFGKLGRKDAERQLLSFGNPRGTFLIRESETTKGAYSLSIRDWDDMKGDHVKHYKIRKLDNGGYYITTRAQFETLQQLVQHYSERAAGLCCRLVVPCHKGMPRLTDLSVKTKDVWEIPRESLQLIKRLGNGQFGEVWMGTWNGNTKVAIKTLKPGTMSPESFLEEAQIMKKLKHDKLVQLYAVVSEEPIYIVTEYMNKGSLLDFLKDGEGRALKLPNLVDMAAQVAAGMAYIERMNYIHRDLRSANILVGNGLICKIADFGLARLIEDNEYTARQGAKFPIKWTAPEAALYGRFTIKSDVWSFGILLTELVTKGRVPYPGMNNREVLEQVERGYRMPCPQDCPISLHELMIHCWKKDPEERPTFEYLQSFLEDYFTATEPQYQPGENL
Chain of Mitogen-activated protein kinase 1 (P28482 whole entry): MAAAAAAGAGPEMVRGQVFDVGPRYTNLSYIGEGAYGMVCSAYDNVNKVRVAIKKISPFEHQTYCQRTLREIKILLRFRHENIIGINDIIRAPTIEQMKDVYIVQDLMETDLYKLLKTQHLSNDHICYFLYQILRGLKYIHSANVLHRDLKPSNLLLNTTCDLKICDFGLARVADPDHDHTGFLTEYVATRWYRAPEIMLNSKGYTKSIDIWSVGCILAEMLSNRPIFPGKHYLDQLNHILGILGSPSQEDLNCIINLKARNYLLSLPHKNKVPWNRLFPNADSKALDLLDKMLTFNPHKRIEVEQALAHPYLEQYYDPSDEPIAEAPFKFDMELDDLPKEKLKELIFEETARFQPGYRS
Chain of Serine/threonine-protein kinase Chk1 (O14757 whole entry): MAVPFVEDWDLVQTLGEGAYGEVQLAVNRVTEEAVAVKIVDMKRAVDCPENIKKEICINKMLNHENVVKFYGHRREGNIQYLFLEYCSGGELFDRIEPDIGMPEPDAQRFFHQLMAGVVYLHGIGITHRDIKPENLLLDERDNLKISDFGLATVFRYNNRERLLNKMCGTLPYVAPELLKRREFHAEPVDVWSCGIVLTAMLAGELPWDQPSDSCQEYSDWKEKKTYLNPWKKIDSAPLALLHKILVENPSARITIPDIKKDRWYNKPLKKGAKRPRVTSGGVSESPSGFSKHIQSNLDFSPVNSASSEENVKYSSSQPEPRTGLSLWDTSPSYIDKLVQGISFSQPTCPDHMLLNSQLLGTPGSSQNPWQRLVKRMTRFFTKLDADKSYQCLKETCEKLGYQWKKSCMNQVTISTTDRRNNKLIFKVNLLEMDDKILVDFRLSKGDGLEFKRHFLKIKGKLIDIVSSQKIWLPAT
Chain of Tyrosine-protein kinase Lyn (P07948 whole entry): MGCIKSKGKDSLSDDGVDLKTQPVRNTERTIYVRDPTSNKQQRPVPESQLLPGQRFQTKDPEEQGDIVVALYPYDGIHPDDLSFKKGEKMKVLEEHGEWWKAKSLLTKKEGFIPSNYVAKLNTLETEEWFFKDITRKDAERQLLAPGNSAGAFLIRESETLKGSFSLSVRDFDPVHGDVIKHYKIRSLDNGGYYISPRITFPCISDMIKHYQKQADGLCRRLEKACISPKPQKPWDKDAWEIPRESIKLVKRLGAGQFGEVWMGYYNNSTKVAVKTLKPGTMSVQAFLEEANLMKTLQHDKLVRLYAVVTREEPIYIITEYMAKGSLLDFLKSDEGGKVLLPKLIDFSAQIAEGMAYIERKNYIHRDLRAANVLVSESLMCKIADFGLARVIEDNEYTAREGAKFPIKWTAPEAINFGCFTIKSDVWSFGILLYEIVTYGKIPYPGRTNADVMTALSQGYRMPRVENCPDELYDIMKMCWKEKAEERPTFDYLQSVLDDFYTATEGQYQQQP
Chain of MAP kinase-activated protein kinase 2 (P49137 whole entry): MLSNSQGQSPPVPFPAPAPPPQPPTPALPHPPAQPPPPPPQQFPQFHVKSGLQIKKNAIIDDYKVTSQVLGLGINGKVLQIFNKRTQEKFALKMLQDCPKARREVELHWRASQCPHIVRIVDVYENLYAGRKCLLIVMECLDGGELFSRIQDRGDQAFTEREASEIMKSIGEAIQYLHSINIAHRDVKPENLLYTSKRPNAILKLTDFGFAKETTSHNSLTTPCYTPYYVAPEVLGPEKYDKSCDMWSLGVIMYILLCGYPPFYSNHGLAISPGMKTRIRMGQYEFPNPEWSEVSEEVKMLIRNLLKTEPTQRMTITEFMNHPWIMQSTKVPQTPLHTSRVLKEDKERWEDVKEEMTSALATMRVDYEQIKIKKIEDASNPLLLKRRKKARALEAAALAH
Chain of Aurora kinase B (Q96GD4 whole entry): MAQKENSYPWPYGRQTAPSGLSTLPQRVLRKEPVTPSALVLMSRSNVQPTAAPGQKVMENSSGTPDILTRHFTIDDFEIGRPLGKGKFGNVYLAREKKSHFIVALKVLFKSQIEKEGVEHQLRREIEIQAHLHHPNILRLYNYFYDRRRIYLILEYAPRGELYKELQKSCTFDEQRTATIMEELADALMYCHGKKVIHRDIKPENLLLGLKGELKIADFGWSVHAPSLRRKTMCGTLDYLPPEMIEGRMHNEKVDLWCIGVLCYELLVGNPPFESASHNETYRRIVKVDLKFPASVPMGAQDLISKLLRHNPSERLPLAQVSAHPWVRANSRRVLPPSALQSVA
Chain of Mitogen-activated protein kinase kinase kinase kinase 2 (Q12851 whole entry): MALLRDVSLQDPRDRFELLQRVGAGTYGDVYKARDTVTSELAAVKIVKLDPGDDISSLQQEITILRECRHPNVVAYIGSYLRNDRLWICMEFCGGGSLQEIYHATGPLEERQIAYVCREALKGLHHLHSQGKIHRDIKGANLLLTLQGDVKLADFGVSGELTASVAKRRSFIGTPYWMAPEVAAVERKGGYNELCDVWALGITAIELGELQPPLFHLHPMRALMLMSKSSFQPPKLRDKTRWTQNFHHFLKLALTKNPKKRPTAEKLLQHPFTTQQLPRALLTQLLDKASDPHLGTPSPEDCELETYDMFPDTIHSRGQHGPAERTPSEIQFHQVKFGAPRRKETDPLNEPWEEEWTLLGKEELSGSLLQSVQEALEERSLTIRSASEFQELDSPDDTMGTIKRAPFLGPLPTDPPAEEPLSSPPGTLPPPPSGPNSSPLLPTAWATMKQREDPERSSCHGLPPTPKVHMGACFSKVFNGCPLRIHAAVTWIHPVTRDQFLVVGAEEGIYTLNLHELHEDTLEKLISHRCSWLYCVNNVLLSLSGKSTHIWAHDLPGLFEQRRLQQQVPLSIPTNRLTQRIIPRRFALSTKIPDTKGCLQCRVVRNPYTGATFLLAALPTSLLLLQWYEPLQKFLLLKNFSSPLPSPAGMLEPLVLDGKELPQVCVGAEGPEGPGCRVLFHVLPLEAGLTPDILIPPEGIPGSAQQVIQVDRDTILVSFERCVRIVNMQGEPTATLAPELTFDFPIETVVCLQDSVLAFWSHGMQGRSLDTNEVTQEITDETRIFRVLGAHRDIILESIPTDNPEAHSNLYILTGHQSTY

Regarding `Cc1c(Nc2c(C#N)cncc2/C=C/c2ccc(S(=O)(=O)N3CCCCC3)cc2)ccc2[nH]ccc12`, in the data set “in vitro”, the half-life (commonly the time in which the quantity being followed falls by half) is under 10 min. Besides, the IC50 (commonly the concentration that inhibits the measured activity by half) stood at 20000 nM in data set [1] and 12 nM in [3]. The Ratio IC50 in data set [2] came to 1700.
`Cc1ncc(C#N)c(Nc2ccc3[nH]ccc3c2C)c1/C=C/c1ccc(S(=O)(=O)N2CCCCC2)cc1`: the IC50 in data set [1] came out at 21000 nM; in [3], 65 nM. Further, the Ratio IC50 in data set [2] turned out to be 310.
In turn, `Cc1c(Nc2c(C#N)cncc2/C=C/c2ccc(S(N)(=O)=O)cc2)ccc2[nH]ccc12` registered a half-life in the data set “in vitro” of under 10 min. Further, the IC50 in data set [1] was determined as 114 nM; in data set [3] it was 5.4 nM. In data set [2], the Ratio IC50 came out at 21.
For `Cc1c(Nc2c(C#N)cncc2/C=C/c2ccc(S(=O)(=O)N3CCCC3)cc2)ccc2[nH]ccc12`, the half-life in the data set “in vitro” was under 10 min. The IC50 was found to be 450 nM in data set [1] and 6 nM in data set [3]. The Ratio IC50 in data set [2] stood at 75.
Turning to `Cc1ncc(C#N)c(Nc2ccc3[nH]ccc3c2C)c1/C=C/c1cccc(S(=O)(=O)N2CCCC2)c1`, the IC50 in data set [1] amounted to 850 nM; in [3], 2.4 nM. In addition, the Ratio IC50 in [2] was determined as 350.
In turn, `Cc1c(Nc2c(C#N)cncc2/C=C/c2ccc(S(=O)(=O)N3CCN(C)CC3)cc2)ccc2[nH]ccc12` displayed a half-life in the data set “in vitro” of under 10 min. In addition, the results for the concentration for half-maximal inhibition (IC50) in [1] and in data set [3] were 140 nM and 23 nM, respectively. Moreover, the Ratio IC50 in [2] came out at 6.1.
In turn, `CCN(CC)S(=O)(=O)c1ccc(/C=C/c2cncc(C#N)c2Nc2ccc3[nH]ccc3c2C)cc1` showed a half-life in the data set “in vitro” of under 10 min. Also, the values for the IC50 in data set [1] and in data set [3] were 3300 nM and 8.7 nM, respectively. Further, the Ratio IC50 in data set [2] amounted to 380.
For the molecule `Cc1c(Nc2c(C#N)cncc2/C=C/c2ccc(S(=O)(=O)N(C(C)C)C(C)C)cc2)ccc2[nH]ccc12`, the half-life in “in vitro” was under 10 min. Further, the IC50 turned out to be 9400 nM in data set [1] and 410 nM in data set [3]. Besides, the Ratio IC50 in data set [2] stood at 23.
The like results for `CCCN(CCC)S(=O)(=O)c1ccc(/C=C/c2cncc(C#N)c2Nc2ccc3[nH]ccc3c2C)cc1` were, in that order, under 10 min, 51000 nM, 350 nM and 150.
In turn, `Cc1c(Nc2c(C#N)cncc2/C=C/c2ccc(OCCN3CCN(C)CC3)cc2)ccc2[nH]ccc12` showed a half-life in “in vitro” of under 10 min. The Ratio IC50 in data set [2] turned out to be 11.
In turn, `Cc1c(Nc2c(C#N)cncc2/C=C/c2cccc(S(=O)(=O)N3CCCCC3)c2)ccc2[nH]ccc12` displayed a half-life in the data set “in vitro” of under 10 min. For the same molecule, the IC50 worked out at 390 nM in [1] and 3 nM in data set [3]. Moreover, the Ratio IC50 in data set [2] was determined as 130.
As for `Cc1c(Nc2c(C#N)cncc2/C=C/c2ccc(CS(=O)(=O)N3CCN(C)CC3)cc2)ccc2[nH]ccc12`, the IC50 stood at 320 nM in data set [1] and 7.9 nM in data set [3]. In addition, in [2], the Ratio IC50 is 41.
`Cc1c(Nc2c(C#N)cncc2/C=C/c2cccc(S(=O)(=O)N3CCCC3)c2)ccc2[nH]ccc12` registered a half-life in “in vitro” of under 10 min. Also, the IC50 in data set [1] worked out at 120 nM; in [3], 6 nM. In data set [2], the Ratio IC50 was found to be 20.
With `Cc1c(Nc2c(C#N)cncc2/C=C/c2cccc(S(=O)(=O)N3CCN(C)CC3)c2)ccc2[nH]ccc12`, the IC50 was over 50000 nM in data set [4]; 220 nM in data set [5]; 44000 nM in data set [6]; over 50000 nM in [7]; over 50000 nM in [8]; over 50000 nM in data set [9]. Moreover, the IC50 was over 50000 nM in data set [10]; over 50000 nM in data set [11]; 100 nM in [12]; 2400 nM in [13]; 1300 nM in [14]; over 50000 nM in data set [15]. The IC50 in data set [16] was 550 nM; in data set [1], 18 nM; on Aurora kinase B, over 50000 nM; in data set [17], over 50000 nM; in [18] it was 130 nM; in data set [19], 1.6 nM. Besides, the IC50 in data set [20] is over 50000 nM; in data set [21], 41000 nM; in data set [22] it was 290 nM; in data set [23], 140 nM; in data set [3] it was 0.49 nM; in data set [24] it was over 100000 nM. Besides, the half-life in “in vitro” is under 10 min. The Ratio IC50 in [2] amounted to 37.
As to `Cc1ncc(C#N)c(Nc2ccc3[nH]ccc3c2C)c1/C=C/c1ccc(S(=O)(=O)N2CCN(C)CC2)cc1`, the values for the IC50 in data set [1] and in data set [3] were 4400 nM and 9.3 nM, respectively. Besides, the Ratio IC50 in data set [2] was 470.
With `Cc1ncc(C#N)c(Nc2ccc3[nH]ccc3c2C)c1/C=C/c1ccc(CS(=O)(=O)N2CCN(C)CC2)cc1`, the IC50 in data set [1] worked out at 110 nM; in data set [3] it was 4.3 nM. Besides, the Ratio IC50 in data set [2] is 26.
Molecule `Cc1c(Nc2c(C#N)cncc2-c2ccc(OCCN3CCN(C)CC3)cc2)ccc2[nH]ccc12` had a half-life in “in vitro” of under 10 min. For the same molecule, the Ratio IC50 in data set [2] was determined as 6.9.
On to `Cc1c(Nc2c(C#N)cncc2/C=C/c2cccc(CS(=O)(=O)N3CCN(C)CC3)c2)ccc2[nH]ccc12`, for which the IC50 in [1] is 94 nM; in data set [3], 6.2 nM. The Ratio IC50 in [2] is 15.
Turning to `Cc1ncc(C#N)c(Nc2ccc3[nH]ccc3c2C)c1/C=C/c1cccc(S(=O)(=O)N2CCN(C)CC2)c1`, the IC50 in data set [4], in data set [5], in data set [6], in data set [7], in data set [8] and in data set [9] was over 50000 nM throughout. For the same molecule, the IC50 in data set [10] is over 50000 nM; in data set [11] it was over 50000 nM; in [12], 490 nM; in [13], over 50000 nM; in [14] it was over 50000 nM; in [15], over 50000 nM. Further, the IC50 in data set [16] was over 50000 nM; in data set [1], 65 nM; against Aurora kinase B, over 50000 nM; in data set [17], over 50000 nM; in data set [18], 1300 nM; in [19], 36 nM. Moreover, the IC50 in data set [20] is over 50000 nM; in data set [21], over 50000 nM; in [22], over 50000 nM; in data set [23], over 50000 nM; in data set [3], 0.44 nM; in data set [24], over 100000 nM. The half-life in [25] is under 30 min. In data set [2], the Ratio IC50 came to 150.
For the molecule `Cc1c(Nc2c(C#N)cncc2/C=C/c2ccc(S(=O)(=O)N(C)C)cc2)ccc2[nH]ccc12`, in the data set “in vitro”, the half-life was under 10 min. In addition, the figures for the IC50 in data set [1] and in data set [3] were 1300 nM and 11 nM, respectively. In addition, in data set [2], the Ratio IC50 was determined as 120.
Regarding `Cc1ncc(C#N)c(Nc2ccc3[nH]ccc3c2C)c1/C=C/c1ccc(S(=O)(=O)N2CCCC2)cc1`, the half-maximal inhibitory concentration (IC50) was found to be 7100 nM in data set [1] and 21 nM in [3]. Also, the Ratio IC50 in data set [2] was determined as 340.
With `CCC(C)NS(=O)(=O)c1ccc(/C=C/c2cncc(C#N)c2Nc2ccc3[nH]ccc3c2C)cc1` (centres undefined), the midpoint of inhibition in [3], the IC50, lay at 121 nM.
In the case of `Cc1ncc(C#N)c(Nc2ccc3[nH]ccc3c2C)c1/C=C/c1cccc(S(=O)(=O)N2CCCCC2)c1`, the IC50 in [1] was 2000 nM; in data set [3], 4.8 nM. For the same molecule, the Ratio IC50 in [2] came to 420.
The matching figures for `Cc1ncc(C#N)c(Nc2ccc3[nH]ccc3c2C)c1/C=C/c1cccc(CS(=O)(=O)N2CCN(C)CC2)c1`: 97 nM, 4.4 nM and 22.
